Measurements as given in patent US11236047B2 (ASTEX THERAPEUTICS LIMITED, priority 2017, dated 2022).
Where two headings read alike, the source gives them in different places. Blank lines part the entries; values can stand above or below the compound they belong to.

Experiments:
[1] = tested on: SN40R2 cells (p53 mutated, MDM2 amplified osteosarcoma); assay: Protocol A: SN40R2 growth inhibition (sulphorhodamine B)
[2] = tested on: SJSA-1 cells (p53 wild-type, MDM2 amplified osteosarcoma); assay: Protocol A: SJSA-1 growth inhibition (sulphorhodamine B)
SJSA-1 cells = assay: Protocol B: SJSA-1 CellTiter-Glo luminescent cell viability assay; settings: read-out: SJSA1 IC50; Protocol B, SJSA-1
MDM2-p53 interaction = MDM2-p53 interaction (Homo sapiens (Human), UniProt Q00987); settings: for inhibition at 0.001 µM: read-out: MDM2 % inhibition @0.0010
Chain of MDM2-p53 interaction (Q00987 whole entry): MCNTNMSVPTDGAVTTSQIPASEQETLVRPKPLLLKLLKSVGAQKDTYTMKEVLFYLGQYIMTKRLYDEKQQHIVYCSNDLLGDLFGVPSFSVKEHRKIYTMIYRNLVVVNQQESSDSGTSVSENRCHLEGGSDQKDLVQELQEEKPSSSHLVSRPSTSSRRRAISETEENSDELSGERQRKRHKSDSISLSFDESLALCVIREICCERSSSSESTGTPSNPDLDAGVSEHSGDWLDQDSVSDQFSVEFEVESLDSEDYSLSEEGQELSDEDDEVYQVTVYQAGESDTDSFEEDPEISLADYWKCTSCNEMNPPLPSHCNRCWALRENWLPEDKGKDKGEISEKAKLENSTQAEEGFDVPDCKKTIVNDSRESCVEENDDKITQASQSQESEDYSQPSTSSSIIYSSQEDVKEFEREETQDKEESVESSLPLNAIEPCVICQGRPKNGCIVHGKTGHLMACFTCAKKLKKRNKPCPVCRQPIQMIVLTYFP

in vivo = settings: monkey, 10 mg/kg
[3] = Repeat dose pharmacokinetics in monkeys; settings: monkey, in vivo, sc, 3 mg/kg subcutaneously 3x weekly, day 15
[4] = Tolerability of subcutaneous SGI-110 formulation in rabbits; type: in vivo
Protocol: (§1) The formulation was well-tolerated in the species tested. […] Rabbits tolerated the 5-day regimen well, up to a dose of 1.5 mg/kg/day, which is equivalent to […] in humans, and the weekly regimen up to a dose of 1.5 mg/kg/week for 3 weeks.

Molm-13 AML cell line = assay: Combination protocol for measuring apoptosis (cleaved caspase-3), Molm-13; type: cell-based; settings: SGI-110 10 nM daily for three days, isoindolinone 20 nM added on third day, 24 hrs, alone or combined, vehicle control 8.72
Protocol: (§2) Combination Protocol for Measuring Apoptosis
(§3) SGI-110 was added daily for three days. […] Percentage apoptosis was measured as percentage fluorescent cells with cleaved caspase-3 in a Guava easyCyte HT cytometer (Millipore). Cleaved caspase-3 staining was recorded in the FL1 channel, with unstained and DMSO control wells being used to set the gated stained and unstained cell populations.
(§4) Table 1 summarises the % apoptosis seen in Molm-13, MV-4-11, or ML-2 with the indicated compound treatments.

MV-4-11 AML cell line = assay: Combination protocol for measuring apoptosis (cleaved caspase-3), MV-4-11; type: cell-based; settings: SGI-110 10 nM daily for three days, isoindolinone 20 nM added on third day, 24 hrs, alone or combined, vehicle control 13.69
Protocol: as §2, §3, §4

LINE-1 DNA methylation = LINE-1 DNA methylation in blood samples, repeat dose study; type: in vivo; settings: monkeys; 3 mg/kg subcutaneously 3x weekly; until day 22; p<0.05 vs level prior to initial dosing
[5] = Tolerability of subcutaneous SGI-110 formulation in cynomolgus monkeys; type: in vivo
Protocol: as §1
(§5) Cynomolgus monkeys tolerated the weekly regimen well, up to a dose of 3.0 mg/kg/week for 3 weeks, which is equivalent to […]. Rats tolerated much higher doses: 30 mg/kg/day over 5 days; and 20 mg/kg twice weekly for 4 weeks.

[6] = Tolerability of subcutaneous SGI-110 formulation in rats; type: in vivo
Protocol: as §1, §5

ML-2 AML cell line = assay: Combination protocol for measuring apoptosis (cleaved caspase-3), ML-2; type: cell-based; settings: SGI-110 10 nM daily for three days, isoindolinone 100 nM added on third day, 24 hrs, alone or combined, vehicle control 3.32
Protocol: as §2, §3, §4

[7] = in vivo, sc
SN40R2 cells = assay: Protocol B: SN40R2 CellTiter-Glo luminescent cell viability assay; settings: read-out: SN40R2 % inhibition at 10, Protocol B, SN40R2, at 10 μM
[8] = Homo sapiens, SJSA-1, read-out: SJSA-1 IC50 (μM), Protocol A, SJSA-1
[9] = read-out: SJSA-1 IC50 (μM) (Protocol A), SJSA-1, Protocol A

SMILES: Nc1ncn([C@H]2C[C@H](O)[C@@H](CO)O2)c(=O)n1 [decitabine, 5-aza-2′-deoxycytidine]
- AUC (in vivo): 340 ng·h/mL
- Cmax (in vivo): 160 ng/mL
- AUC at 15 day [3]: 99 ng·h/mL
- Cmax at 15 day [3]: 28 ng/mL

SMILES: Nc1ncn([C@H]2C[C@H](OP(=O)(O)OC[C@H]3O[C@@H](n4cnc5c(=O)[nH]c(N)nc54)C[C@@H]3O)[C@@H](CO)O2)c(=O)n1 [SGI-110, 2′-deoxy-5-azacytidylyl-(3′5′)-2′-deoxy-guanosine]
- tolerated dose, once daily subcutaneous dose for 5 days ([4]; SGI-110 sodium salt 100 mg/mL in glycol/glycerin/ethanol (65:25:10)): ≤ 1.5 mg/kg/day
- tolerated dose, once weekly subcutaneous regimen ([4]; for 3 weeks): ≤ 1.5 mg/kg/week
- % Apoptosis (Molm-13 AML cell line): 36.08%
- % Apoptosis (MV-4-11 AML cell line): 26.12%
- LINE-1 DNA methylation (LINE-1 DNA methylation): Decreases in LINE-1 DNA methylation
- tolerated dose, once weekly subcutaneous regimen ([5]; cynomolgus monkeys, for 3 weeks): ≤ 3.0 mg/kg/week
- equivalent dose of tolerated weekly regimen dose ([5]; from cynomolgus monkeys 3.0 mg/kg/week): 36 mg/kg/week
- tolerated dose, once daily subcutaneous regimen ([6]; over 5 days): 30 mg/kg/day
- tolerated dose, twice weekly subcutaneous regimen ([6]; twice weekly for 4 weeks): 20 mg/kg
- % Apoptosis (ML-2 AML cell line): 3.93%
- myelosuppression and recovery [7]: less myelosuppression and faster recovery

SMILES: CCC(O)(c1cc(F)c2c(c1)C(=O)N(Cc1ccc(C#N)cn1)[C@@]2(OC1CC(O)C1)c1ccc(Cl)cc1)[C@H]1CC[C@H](O)CC1 (stereo partly drawn) [Example 518, 6-{[(1R)-1-(4-chlorophenyl)-7-fluoro-5-{1-hydroxy-1-[trans-4-hydroxycyclohexyl]propyl}-3-oxo-1-[cis-3-hydroxycyclobutoxy]-2,3-dihydro-1H-isoindol-2-yl]methyl}pyridine-3-carbonitrile]
- inhibition at 50 µM ([1]; read-out: SN40R2 % inhibition at 50): 46%
- IC50 [2, 8]: 0.058 µM
- IC50 (SJSA-1 cells): 65 nM
- inhibition at 0.001 µM (MDM2-p53 interaction): 79%
- inhibition at 10 µM (SN40R2 cells): 10%

SMILES: Nc1ncn([C@H]2CC(OP(=O)(O)OC[C@H]3O[C@@H](n4cnc5c(=O)[nH]c(N)nc54)CC3O)[C@@H](CO)O2)c(=O)n1 (some centres unmarked) [compound 1-1]
- AUC (in vivo): 1470 ng·h/mL
- Cmax (in vivo): 1130 ng/mL
- AUC at 15 day [3]: 592 ng·h/mL
- Cmax at 15 day [3]: 181 ng/mL

SMILES: CO[C@]1(c2ccc(Cl)cc2)c2ccc(C(C)(O)CN3CCOCC3=O)cc2C(=O)N1Cc1ccc(Cl)cn1 (single isomer, unassigned) [Example 328]
- IC50 [2, 9]: 2.3 µM
- MDM2 % at stated concentration (MDM2-p53 interaction; at 0.10 μM): 42%@0.10

The remaining lines, values ahead:

- IC50 ([1]; read-out: SN40R2 IC50 (μM)): 22 µM
- IC50 [2, 8]: 0.11 µM
- IC50 (SJSA-1 cells): 190 nM
- inhibition at 0.001 µM (MDM2-p53 interaction): 65%
SMILES: Cn1cc(C(O)(c2cc(F)c3c(c2)C(=O)N(Cc2ccc(C#N)cn2)[C@@]3(O[C@H]2CCOC2)c2ccc(Cl)cc2)C(F)(F)F)cn1 (stereo partly drawn) [Example 428, 6-{[(1R)-1-(4-chlorophenyl)-7-fluoro-3-oxo-1-[(3S)-oxolan-3-yloxy]-5-[2,2,2-trifluoro-1-hydroxy-1-(1-methyl-1H-pyrazol-4-yl)ethyl]-2,3-dihydro-1H-isoindol-2-yl]methyl}pyridine-3-carbonitrile]

- IC50 [2, 9]: 7.1 µM
- MDM2 % at stated concentration (MDM2-p53 interaction; at 0.30 μM): 36%@0.30
SMILES: CO[C@]1(c2ccc(Cl)cc2)c2ccc(C(C)(O)CN3CC(=O)NC3=O)cc2C(=O)N1Cc1ccc(Cl)cn1 (single isomer, unassigned) [Example 330]
